From US20250145585A1, “HETEROCYCLIC INHIBITORS OF IGF-1R FOR TREATMENT OF DISEASE” (HORIZON THERAPEUTICS IRELAND DAC, priority 2023, published 2025) come the findings set out here.

The target in experiment [1] is T1, IGF-1R (Homo sapiens, UniProt P08069).
T1 construct: expressed in transfected cells
The experiment in a line: Example B-2: IGF-1R Assay (PathHunter cell lines, EC80 agonist challenge, chemiluminescent detection). It is filed as cell-based. The note with it: PathHunter cells, compound 60 minutes at 37° C., EC80 agonist 3 hours; read-out: IC50, Biological Activity against IGF-1R (Table B2). Summed up: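 PathHunter cells were pre-incubated with compound for 60 min at 37° C (1% vehicle), then challenged with EC80 agonist for 3 h at room temperature. Chemiluminescent detection after 1 h gave % inhibition relative to EC80 and vehicle controls, from which IC50 was derived.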

In experiment [2] the target is T1, IGF-1R. Put plainly: Example B-1: IGF-1R Assay (PC3 cells stimulated with IGF1, AlphaLISA on cell lysates). It counts as cell-based. The note with it: compound two hours, IGF1 200 ng/mL for 30 min, read-out: IC50, Biological Activity against IGF-1R (Table B1). Summed up: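 PC3 cells serum-starved 2 h, treated 2 h with 3-fold serially diluted compound, then stimulated 30 min with IGF1 (200 ng/mL final). Lysates analysed by AlphaLISA; % inhibition calculated relative to vehicle and EC80 controls, IC50 derived.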
Background: In Alpha technology, singlet oxygen from a donor bead excites a nearby acceptor bead.

T1 sequence (P08069 31-1367): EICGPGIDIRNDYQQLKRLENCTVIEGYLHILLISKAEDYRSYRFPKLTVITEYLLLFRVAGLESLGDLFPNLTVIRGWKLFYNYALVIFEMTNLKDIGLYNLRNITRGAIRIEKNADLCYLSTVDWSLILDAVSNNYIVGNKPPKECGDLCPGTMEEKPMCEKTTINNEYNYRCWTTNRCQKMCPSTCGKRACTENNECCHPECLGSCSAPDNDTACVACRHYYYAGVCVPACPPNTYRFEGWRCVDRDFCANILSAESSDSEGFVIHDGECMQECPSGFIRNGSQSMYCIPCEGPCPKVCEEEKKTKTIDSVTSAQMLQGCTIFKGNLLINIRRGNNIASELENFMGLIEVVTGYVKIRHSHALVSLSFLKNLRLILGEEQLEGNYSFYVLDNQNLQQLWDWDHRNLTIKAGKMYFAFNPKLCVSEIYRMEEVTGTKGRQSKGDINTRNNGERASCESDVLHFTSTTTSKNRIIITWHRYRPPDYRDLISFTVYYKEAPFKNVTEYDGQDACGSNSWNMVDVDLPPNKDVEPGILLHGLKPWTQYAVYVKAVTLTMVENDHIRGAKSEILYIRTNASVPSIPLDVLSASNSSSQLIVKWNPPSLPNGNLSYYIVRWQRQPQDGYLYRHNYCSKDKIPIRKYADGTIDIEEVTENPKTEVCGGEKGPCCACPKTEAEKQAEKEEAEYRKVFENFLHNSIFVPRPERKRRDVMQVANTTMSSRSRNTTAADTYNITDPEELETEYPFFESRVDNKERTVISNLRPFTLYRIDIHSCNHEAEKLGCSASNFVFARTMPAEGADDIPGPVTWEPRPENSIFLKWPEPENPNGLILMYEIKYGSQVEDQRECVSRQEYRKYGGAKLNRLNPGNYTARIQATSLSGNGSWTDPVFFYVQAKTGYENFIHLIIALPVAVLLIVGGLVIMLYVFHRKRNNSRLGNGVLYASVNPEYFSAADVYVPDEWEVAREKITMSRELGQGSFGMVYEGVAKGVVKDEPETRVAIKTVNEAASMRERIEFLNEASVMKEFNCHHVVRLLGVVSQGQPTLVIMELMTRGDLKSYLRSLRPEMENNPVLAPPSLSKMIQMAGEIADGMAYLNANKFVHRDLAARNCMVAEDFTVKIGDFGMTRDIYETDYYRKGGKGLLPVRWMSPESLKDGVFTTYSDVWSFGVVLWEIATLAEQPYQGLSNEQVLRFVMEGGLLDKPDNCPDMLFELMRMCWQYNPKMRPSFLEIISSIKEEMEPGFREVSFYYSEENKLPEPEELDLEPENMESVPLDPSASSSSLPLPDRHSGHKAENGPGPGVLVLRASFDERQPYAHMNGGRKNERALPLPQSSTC

Usually IC50 stands for the concentration that gives 50% inhibition. `CC(C)Nc1cc(CN2C(=O)N(c3ccc(C(C)(C)C#N)cc3)C(=O)C2(C)C)ccn1` [Compound 125, 2-(4-(3-((2-(isopropylamino)pyridin-4-yl)methyl)-4,4-dimethyl-2,5-dioxoimidazolidin-1-yl)phenyl)-2-methylpropanenitrile]: the IC50 at IGF-1R [1] and at IGF-1R [2] was no more than 500 nM in each case.
As to `CC1(C)C(=O)N(c2ccc(C3(C(F)(F)F)CC3)cc2)C(=O)N1Cc1ccnc(NC2CCOCC2)c1` [Compound 106, 5,5-dimethyl-1-((2-((tetrahydro-2H-pyran-4-yl)amino)pyridin-4-yl)methyl)-3-(4-(1-(trifluoromethyl)cyclopropyl)phenyl) imidazolidine-2,4-dione], the IC50 on IGF-1R [1] and on IGF-1R [2] was no more than 500 nM in each case.
Consider `CC1COCCC1Nc1cc(CN2C(=O)N(c3ccc(C4(C(F)(F)F)CC4)cc3)C(=O)C2(C)C)ccn1` (stereo not shown) [Compound 128, 5,5-dimethyl-1-((2-((3-methyltetrahydro-2H-pyran-4-yl)amino)pyridin-4-yl)methyl)-3-(4-(1-(trifluoromethyl)cyclopropyl)phenyl) imidazolidine-2,4-dione], for which the IC50 on IGF-1R [1] and at IGF-1R [2] was no more than 500 nM in each case.
As for `CC(C)Nc1cc(CN2C(=O)N(c3ccc(C4(C)CC4)cc3)C(=O)C2(C)C)ccn1` [Compound 98, 1-((2-(isopropylamino)pyridin-4-yl)methyl)-5,5-dimethyl-3-(4-(1-methylcyclopropyl)phenyl)imidazolidine-2,4-dione], the IC50 at IGF-1R [1] and at IGF-1R [2] was no more than 500 nM in each case.
For the molecule `CC1CC(Nc2cc(CN3C(=O)N(c4ccc(C5(C(F)(F)F)CC5)cc4)C(=O)C3(C)C)ccn2)CCO1` (stereo not shown) [Compound 127, 5,5-dimethyl-1-((2-((2-methyltetrahydro-2H-pyran-4-yl)amino)pyridin-4-yl)methyl)-3-(4-(1-(trifluoromethyl)cyclopropyl)phenyl) imidazolidine-2,4-dione], the 50% inhibitory concentration (IC50) on IGF-1R [1] and at IGF-1R [2] was no more than 500 nM each time.
Turning to `Cn1nc(C(F)(F)F)c2ccc(N3C(=O)N(Cc4ccnc(N)c4)C(C)(C)C3=O)cc21` [Compound 255, 1-((2-aminopyridin-4-yl)methyl)-5,5-dimethyl-3-(1-methyl-3-(trifluoromethyl)-1H-indazol-6-yl)imidazolidine-2,4-dione], the IC50 at IGF-1R [1] fell in the range of 2000 to 10000 nM; at IGF-1R [2], 500 to 2000 nM.
With `CC(C)Nc1cc(CN2C(=O)N(c3ccc(C4(C#N)CC(F)(F)C4)cc3)C(=O)C2(C)C)ccn1` [Compound 123, 3,3-difluoro-1-(4-(3-((2-(isopropylamino)pyridin-4-yl)methyl)-4,4-dimethyl-2,5-dioxoimidazolidin-1-yl)phenyl)cyclobutane-1-carbonitrile], the IC50 at IGF-1R [1] and on IGF-1R [2] was 500 to 2000 nM throughout.
`CC1(C)CNc2nccc(CN3C(=O)N(c4ccc(SC(F)(F)F)cc4)C(=O)C3(C)C)c21` [Compound 20, 1-((3,3-dimethyl-2,3-dihydro-1H-pyrrolo[2,3-b]pyridin-4-yl)methyl)-5,5-dimethyl-3-(4-((trifluoromethyl)thio)phenyl)imidazolidine-2,4-dione]: the IC50 on IGF-1R [1] and at IGF-1R [2] was no more than 500 nM throughout.
Regarding `Cc1c(CN2C(=O)N(c3ccc(C4(C(F)(F)F)CC4)cc3)C(=O)C2(C)C)ccnc1NC(C)C` [Compound 122, 1-((2-(isopropylamino)-3-methylpyridin-4-yl)methyl)-5,5-dimethyl-3-(4-(1-(trifluoromethyl)cyclopropyl)phenyl)imidazolidine-2,4-dione], the IC50 was no more than 500 nM at IGF-1R [1] and greater than 10000 nM at IGF-1R [2].
Regarding `CC1(C)C(=O)N(c2ccc(C3(C(F)(F)F)CC3)cc2)C(=O)N1Cc1ccnc2c1CC(=O)N2` [Compound 13, 5,5-dimethyl-1-((2-oxo-2,3-dihydro-1H-pyrrolo[2,3-b]pyridin-4-yl)methyl)-3-(4-(1-(trifluoromethyl)cyclopropyl)phenyl)imidazolidine-2,4-dione], the IC50 on IGF-1R [1] and on IGF-1R [2] was no more than 500 nM in each case.
As for `CC1(C)C(=O)N(c2ccc(C3(C(F)(F)F)CC3)cc2)C(=O)N1Cc1ccnc2c1OCCN2` [Compound 17, 1-((3,4-dihydro-2H-pyrido[3,2-b][1,4]oxazin-8-yl)methyl)-5,5-dimethyl-3-(4-(1-(trifluoromethyl)cyclopropyl)phenyl) imidazolidine-2,4-dione], the IC50 at IGF-1R [1] and at IGF-1R [2] was no more than 500 nM in each case.
With `CC1(C)C(=O)N(c2ccc(C3(C(F)(F)F)CC3)cc2)C(=O)N1Cc1ccnc(N[C@H]2CCOC2)c1` [Compound 119, (S)-5,5-dimethyl-1-((2-((tetrahydrofuran-3-yl)amino)pyridin-4-yl)methyl)-3-(4-(1-(trifluoromethyl)cyclopropyl)phenyl) imidazolidine-2,4-dione], the IC50 on IGF-1R [1] and on IGF-1R [2] was no more than 500 nM in each case.
Turning to `CC1(C)C(=O)N(c2ccc(C3(C#N)CCC3)cc2)C(=O)N1Cc1ccnc(NC2CCOCC2)c1` [Compound 129, 1-(4-(4,4-dimethyl-2,5-dioxo-3-((2-((tetrahydro-2H-pyran-4-yl)amino)pyridin-4-yl)methyl)imidazolidin-1-yl)phenyl)cyclobutane-1-carbonitrile], the 50% inhibitory concentration (IC50) at IGF-1R [1] and on IGF-1R [2] was no more than 500 nM each time.
`CC(C)Nc1cc(CN2C(=O)N(c3ccc(SC(F)(F)F)nc3)C(=O)C2(C)C)ccn1` [Compound 392, 1-((2-(isopropylamino)pyridin-4-yl)methyl)-5,5-dimethyl-3-(6-((trifluoromethyl)thio)pyridin-3-yl)imidazolidine-2,4-dione]: the IC50 at IGF-1R [1] and on IGF-1R [2] was 500 to 2000 nM each time.
On to `CC(C)Nc1cc(CN2C(=O)N(c3ccc4c(c3)NC(=O)C43CC3)C(=O)C2(C)C)ccn1` [Compound 187, 1-((2-(isopropylamino)pyridin-4-yl)methyl)-5,5-dimethyl-3-(2′-oxospiro[cyclopropane-1,3′-indolin]-6′-yl)imidazolidine-2,4-dione], for which the IC50 on IGF-1R [1] and on IGF-1R [2] was 2000 to 10000 nM each time.
Take `CC(C)Nc1cc(CN2C(=O)N(c3ccc(C4(C)CC4(F)F)cc3)C(=O)C2(C)C)ccn1` (stereo not shown) [Compound 124, 3-(4-(2,2-difluoro-1-methylcyclopropyl)phenyl)-1-((2-(isopropylamino)pyridin-4-yl)methyl)-5,5-dimethylimidazolidine-2,4-dione]: the IC50 on IGF-1R [1] and at IGF-1R [2] was no more than 500 nM in each case.
For `CC(C)Nc1cc(CN2C(=O)N(c3ccc(SC(F)(F)F)cc3)C(=O)C2(C)CO)ccn1` (stereo not shown) [Compound 299, 5-(hydroxymethyl)-1-((2-(isopropylamino)pyridin-4-yl)methyl)-5-methyl-3-(4-((trifluoromethyl)thio)phenyl)imidazolidine-2,4-dione], the IC50 at IGF-1R [1] and at IGF-1R [2] was 2000 to 10000 nM throughout.
For `CC(C)Nc1cc(CN2C(=O)N(c3ccc(C4(C#N)CCCCC4)cc3)C(=O)C2(C)C)ccn1` [Compound 126, 1-(4-(3-((2-(isopropylamino)pyridin-4-yl)methyl)-4,4-dimethyl-2,5-dioxoimidazolidin-1-yl)phenyl)cyclohexane-1-carbonitrile], the IC50 on IGF-1R [1] and at IGF-1R [2] was 500 to 2000 nM throughout.
For `CC(C)Nc1cc(CN2C(=O)N(c3ccc4c(c3)N(C)CC43CCC3)C(=O)C2(C)C)ccn1` [Compound 191, 1-((2-(isopropylamino)pyridin-4-yl)methyl)-5,5-dimethyl-3-(1′-methylspiro[cyclobutane-1,3′-indolin]-6′-yl)imidazolidine-2,4-dione], the IC50 at IGF-1R [1] and at IGF-1R [2] was no more than 500 nM each time.
As for `CC1(C)C(=O)N(c2ccc(SC(F)(F)F)cc2)C(=O)N1Cc1ccnc2[nH]ccc12` [Compound 1, 1-((1H-pyrrolo[2,3-b]pyridin-4-yl)methyl)-5,5-dimethyl-3-(4-((trifluoromethyl)thio)phenyl)imidazolidine-2,4-dione], the IC50 at IGF-1R [1] and on IGF-1R [2] was no more than 500 nM throughout.
Regarding `CC(C)Nc1cc(CN2C(=O)N(c3ccc(C4(C#N)CCC4)cc3)C(=O)C2(C)C)ccn1` [Compound 107, 1-(4-(3-((2-(isopropylamino)pyridin-4-yl)methyl)-4,4-dimethyl-2,5-dioxoimidazolidin-1-yl)phenyl)cyclobutane-1-carbonitrile], the IC50 at IGF-1R [1] and on IGF-1R [2] was no more than 500 nM each time.
Turning to `CC1(C)C(=O)N(c2ccc(C3(C(F)(F)F)CC3)cc2)C(=O)N1Cc1ccnc2c1CCCN2` [Compound 18, 5,5-dimethyl-1-((5,6,7,8-tetrahydro-1,8-naphthyridin-4-yl)methyl)-3-(4-(1-(trifluoromethyl)cyclopropyl)phenyl) imidazolidine-2,4-dione], the IC50 at IGF-1R [1] and at IGF-1R [2] was no more than 500 nM throughout.
With `CC(C)Nc1cc(CN2C(=O)N(c3ccc(C(C)(C)C)nc3)C(=O)C2(C)C)ccn1` [Compound 267, 3-(6-(tert-butyl)pyridin-3-yl)-1-((2-(isopropylamino)pyridin-4-yl)methyl)-5,5-dimethylimidazolidine-2,4-dione], the IC50 on IGF-1R [1] and at IGF-1R [2] was no more than 500 nM throughout.
